Columns and labels:
[1] = system: wheat leaf stripe fungi (Septoria tritici); assay: Titer plate growth test of wheat leaf stripe fungi in potato broth medium (absorbance at 600 nm); assay type: cell-based; conditions: cultured at 18° C. for 4 days
Method: Each 1 μL of a solution containing the compound A at a predetermined concentration in dimethylsulfoxide was dispensed into a titer plate (96 wells), and then each 150 μL of potato broth medium containing suspension of spore of wheat leaf stripe fungi (Septoria tritici) was dispensed so that the concentration of the compound A was finally 4.7 ppm. The plate was cultured at 18° C. for 4 days, thereby allowing the wheat leaf stripe fungi to undergo proliferation, and the absorbance at 600 nm of each well of the titer plate was then measured to determine a degree of growth of the wheat leaf stripe fungi. The efficacy was calculated from the determined degree of growth by the below-mentioned “Equation 1”. Efficacy (%)=100×(X−Y)/X “Equation 1” wherein • X: Degree of fungal growth in non-treated area • Y: Degree of fungal growth in treated area The “Non-treated area” represents an area where a similar treatment procedure to that of the treated area except for not using the compound A is done. Each 1 μL of a solution containing the compound A at a predetermined concentration in dimethylsulfoxide was dispensed into a titer plate (96 wells), and then each 150 μL of potato broth medium containing suspension of spore of wheat leaf stripe fungi was dispensed so that the concentration of the compound A was finally 1.2 ppm. The plate was cultured at 18° C. for 4 days, thereby allowing the wheat leaf stripe fungi to undergo proliferation, and the absorbance at 600 nm of each well of the titer plate was then measured to determine a degree of growth of the wheat leaf stripe fungi. The efficacy was calculated from the determined degree of growth by the below-mentioned “Equation 1”. As a result, the efficacy was 53%. The test was carried out according to Test Example 1 using the compound B instead of the compound A. As a result, the efficacy was 45%. The test was carried out according to Test Example 2 using the compound B instead of the compound A. As a result, the efficacy was 12%.

[2] = system: barley scald fungi (Rhynchosporium secalis); assay: Titer plate growth test of barley scald fungi in potato broth medium (absorbance at 600 nm); assay type: cell-based; conditions: 4.7 ppm, cultured at 18° C. for 7 days
Method: Each 1 μL of a solution containing the compound A at a predetermined concentration in dimethylsulfoxide was dispensed into a titer plate (96 wells), and then each 150 μL of potato broth medium containing suspension of spore of wheat leaf stripe fungi (Septoria tritici) was dispensed so that the concentration of the compound A was finally 4.7 ppm. The plate was cultured at 18° C. for 4 days, thereby allowing the wheat leaf stripe fungi to undergo proliferation, and the absorbance at 600 nm of each well of the titer plate was then measured to determine a degree of growth of the wheat leaf stripe fungi. The efficacy was calculated from the determined degree of growth by the below-mentioned “Equation 1”. Efficacy (%)=100×(X−Y)/X “Equation 1” wherein • X: Degree of fungal growth in non-treated area • Y: Degree of fungal growth in treated area The “Non-treated area” represents an area where a similar treatment procedure to that of the treated area except for not using the compound A is done. […] The plate was cultured at 18° C. for 7 days, thereby allowing the barley scald fungi to undergo proliferation, and the absorbance at 600 nm of each well of the titer plate was then measured to determine a degree of growth of the barley scald fungi. The efficacy was calculated from the determined degree of growth by the below-mentioned “Equation 1”. […]

[3] = 1.2 ppm, wheat leaf stripe fungi

SMILES	Efficacy (%) [1, 3]	Efficacy (%) ([1]; 4.7 ppm, Septoria tritici)	Efficacy (%) [2]
CCOc1ncccc1Oc1cc(-n2c(=O)cc(C(F)(F)F)n(C)c2=O)c(F)cc1Cl [Compound A]	53%	73%	94%
COc1ncccc1Oc1cc(-n2c(=O)cc(C(F)(F)F)n(C)c2=O)c(F)cc1Cl [Compound B]	12%	45%	41%
